# From patent EP2181708A1, “Use of Valproate for reducing CHOP levels, particularly in a mammal having SCI” (Universitat Autonoma de Barcelona, priority 2008, dated 2010)
# Tests used:
# Format in all cases: in vivo, Sprague-Dawley rats
# [1] = system: CHOP; test: Western blot of CHOP in spinal cord after contusion SCI
# Protocol: (§1) Adult females Sprague-Dawley rats aged 11 weeks (220-250 g) were anesthetized with pentobarbital (40 mg/kg i.p.). When unresponsive, the vertebral column was exposed and a laminectomy carried out at T8-T9 levels. Rostral T7 and caudal T10 vertebral bodies were clamped with Adson stabilizing forceps, and carefully adjusted to level the spinal cord in the horizontal plane. A contusion injury was performed using the Infinite Horizon impactor device (Precision Scientific Instruments, Lexington, KY). The stainless steel impounder tip was placed at 3-4 mm above the exposed spinal cord, and then a fast impact produced applying forces of 150 or 250 kilodynes (KDyn) to the exposed spinal cord. The wound was sutured with 5-0 silk thread in the muscular plane and the skin was closed with small clips and disinfected with povidone iodine solution. Sham-operated animals received the same surgical procedure but sustained no impact injury; the spinal cord was left exposed for 5 min. The animals were maintained in a warm environment until full recovery, and received preventive antibiotic (amoxicyline) and analgesic (buprenorphine) treatment. All animals were kept under standard conditions of light and temperature and fed with food and water ad libitum. The procedures involving animals were approved by the Ethics Committee of our institution, and followed the European Communities Council Directive 86/609/EEC.
# VPA was intraperitoneally administered at an initial dose of 150 mg/kg by 3 h after surgery, and then a dose of 300 mg/Kg either every 24 h or every 12 h during the first week post-surgery, following by a dose of 300 mg/Kg every 24 h for the next two weeks. Groups of rats subjected to SCI or sham operation received VPA or saline injections following the same regime. […]
# (§2) Rats were re-anesthetised and decapitated at 3 dpo for sample preparation. […] After clearance, protein concentration was measured by the BCA method assay (BCA Protein Assay kit, Pierce). […]
# [2] = system: acetylated histone-3 (acetyl-H3); test: Western blot of acetylated histone-3 in spinal cord after contusion SCI; conditions: 250 Kdyn contusion, VPA every 12 h, vs SCI without VPA
# Protocol: as §1, with “All animals were kept under standard conditions of light and temperature and fed with food and water ad libitum. The procedures involving animals were approved by the Ethics Committee of our institution, and followed the European Communities Council Directive 86/609/EEC.” left out
# as §2
# [3] = system: tibialis anterior muscle; test: Electrophysiological tests (H/M ratio, motor evoked potentials) after spinal cord contusion
# Protocol: as §1
# VPA was intraperitoneally administered at an initial dose of 150 mg/kg by 3 h after surgery, and then a dose of 300 mg/Kg either every 24 h or every 12 h during the first week post-surgery, following by a dose of 300 mg/Kg every 24 h for the next two weeks. […]
# Electrophysiological tests were performed at 14 and 28 days after operation. […] The H/M amplitude ratio was calculated. Motor evoked potentials (MEPs) were elicited by transcranial stimulation with two needle electrodes placed subcutaneously over the skull, delivering pulses of 0.1 ms duration and 25 mA intensity, and recorded from the tibialis anterior muscle (Garcia-Alias et al., 2003).
# [4] = system: ventral horn motoneurons; test: Ventral horn neuron and motoneuron analysis (cresyl violet, NeuN) after SCI
# Protocol: as §1, with “86/609/EEC. […]” for “86/609/EEC.”
# Motoneurons were identified by their localization in the lateral ventral horn of spinal cord sections stained with cresyl violet and were counted following a method published elsewhere (Grossman et al, 2001) by size and morphological strict criteria. […] Only motoneurons with diameter larger than one square, i.e. ranging from 30 to 70 (m, and with a prominent nucleolus and being polygonal in shape were counted. The mean number of motoneurons per section was calculated. […]
structure (smiles),measurement,setting,value
"CCCC(CCC)C(=O)O [VPA, 2-propylpentanoic acid]",CHOP levels,"[1]; VPA 300 mg/kg every 12 h i.p., contusion 150 and 250 KDyn, three days post-injury",significantly reduced
same,"CHOP level reduction, 250 KDyn versus 150 KDyn contusion","[1]; VPA 300 mg/kg every 12 h i.p., three days post-injury",more pronounced
same,CHOP levels,"[1]; VPA 300mg/kg once per day i.p., vs saline, 3 days post-injury",did not produce changes
same,levels of acetylated H3,[2],further increased
same,mean amplitudes of MEPs,"[3]; 14 and 28 days postlesion, vs group control",slightly higher
same,mean H/M amplitude ratio,"[3]; 14 days, injured rats",about 9%
same,mean H/M amplitude ratio,"[3]; 28 days, control group 20%",16%
same,lesions in the sections distal to the epicenter,"[4]; 35 days, vs saline",fewer lesions
same,length of spinal cord devoid of motoneurons,"[4]; cresyl violet sections, especially caudal side, did not reach statistical significance",A reduction
same,number of NeuN neurons,"[4]; ventral horn, distal to the epicenter",more abundant
